In patent US20250179057A1, “MEK IMMUNE ONCOLOGY INHIBITORS AND THERAPEUTIC USES THEREOF” (Immuneering Corporation, priority 2022, published 2025):
Where “and” joins values, the source holds several entries; their conditions need not be identical. Equal entries are not always repeated.

Key:
[1] = system: phospho-ERK in A549 (KRAS G12S) cells; assay: Cell-based pERK (pERK:tERK) in A549 cells; design: A549-pERK 10 uM, 2 h: unit not given here; conditions: for A549-pERK (10 nM, 2 h): phospho- to total protein ratio normalized to DMSO control (Table 9); for A549-pERK 10 uM, 2 h: phospho- to total protein ratio normalized to DMSO control
Protocol: Media components, reagents and buffers for Western Blot: All cell culture media components were obtained from ThermoFisher Scientific. […] Laemmli sample loading 4× buffer (ThermoFisher Scientific, Cat No. NP0007). MOPS/SDS electrophoresis running buffer (GenScript, Cat No. M00138).
Subculture conditions: Adherent cells were grown to approximately 90% confluency, culture medium was aspirated and the cell layer was rinsed with PBS. […] Eight mL media was added, cells were spun down at 1000×g for 5 minutes. Cell pellet was re-suspended in 10 mL media and an appropriate volume was inoculated into a new culture flask.
Compound (drug) treatment: Cells were plated in a 6-well plate at a density of 250,000-300,000 cells/well in 3 mL media and incubated 37° C. in a humidified, 5% CO2 incubator. […] These solutions were added to the cells (3 uL/well), mixed by swirling the plate, and incubated at 37° C. in a humidified, 5% CO2 incubator for 2 hours.
Cell lysis and protein estimation: Cells were washed with PBS, and scraped in 50 μL of lysis buffer containing protease and phosphatase inhibitors. Cell lysates were stored at −20° C. Cell lysates were thawed and spun at 12,000 rpm for one minute, 3 ul of the supernatant was added to 500 μL of Coomassie blue reagent following by 500 μL of water. […] Protein standards were used (0-20 mg/mL) to calculate protein concentrations of test samples.
All samples were heated at 95° C. for 5 minutes, cooled to room temperature and spun down. […] After the run, gel was removed and protein transfer was done using iBlot for 7 minutes, as per manufacturer's recommendations. After the transfer, nitrocellulose membrane was incubated on a shaker in 5 mL of blocking buffer at room temperature for 1 hr. The blot was then incubated overnight on a shaker in 5 ml of blocking buffer containing 0.2% Tween-20 and primary antibody, at room temperature. Anti-phospho-STAT3 antibody was used at a dilution of 1:500, the other 3 primary antibodies were used at a dilution of 1:1000.
Next day, the blot was washed 3 times for 10 min each with 10 mL of TBST followed by incubation on a shaker in 5 ml of blocking buffer containing 0.2% Tween-20 and 0.5 ul of the IRDye labeled secondary antibodies, diluted 1:10000, at room temperature for 1 hr. The blot was then washed 3 times for 10 min each with 10 mL of TBST and dried between sheets of paper towels. Imaging was done using LICOR's Odyssey imaging system, quantitation was done using their software, Image Studio version 3.1.
(§1) Materials and Methods: A549 or A375 cells were seeded in 6-well plates at an appropriate seeding density on day 0. On day 2 or 3, after checking the health and confluency of cells, the media was aspirated and replaced with 1 mL media containing a predetermined concentration of compound and incubated for 2 hours. After 2 hours, the media was aspirated, and the cells washed 2 times with cold PBS. Cells were lysed on ice, with 50 uL 1×CST lysis buffer +1 mM PMSF for 5 minutes. After 5 minutes, cells were removed using a scraper and transferred to cold 1.5 mL tubes, and centrifuged for 10 min, 4° C., 14,000×g. Supernatant was gently removed and snap frozen in liquid nitrogen. Protein concentration of the lysate was determined using Bradford Reagent (analyzed using SpectraMax M2E) and diluted to 1 mg/mL or pERK or 1.5 mg/mL for pMEK analysis. […] All dilutions were in Milk-free antibody diluent.
They were grown in T75 flasks in DMEM containing 10% FBS and Pen-Strep. at 37° C. in a humidified, 5% CO2 incubator. The adherent cells were grown to about 90% confluency, culture medium was aspirated, and the cell layer was rinsed with PBS. […] Eight mL media was added, cells were spun down at 1000 g for 5 minutes. Cell pellet was re-suspended in 10 mL media and an appropriate volume was inoculated into a new culture flask. Cells were plated in a 6-well plate at a density of 250,000-300,000 cells/well in 3 mL media and incubated 37° C. in a humidified, 5% CO2 incubator.

[2] = system: phospho-MEK in A549 cells; assay: Cell-based pMEK (pMEK:tMEK, CRAF bypass) in A549 cells; conditions: 2 h, pMEK to total MEK normalized to DMSO control
Protocol: as §1
(§2) A549 or […] cells were treated in duplicate for two hours with compounds at varying concentrations. After two hours, the cells were lysed, snap frozen, and stored at −80° C. After storage, the lysate was quantified with the Bradford assay. Before the lysates were prepared to run on the Jess, the lysates were diluted to 1 mg/mL for pERK analysis and 1.5 mg/mL pMEK analysis using quantitative Western blotting. ERK and MEK phosphorylation levels were estimated by taking the ratio of phospho-protein to total protein and normalizing to the DMSO control.
as §2

C#CCNCc1c(Cc2cccc(NS(=O)(=O)NC)c2F)c(=O)oc2cc(OC(=O)N(C)C)ccc12 [Compound 14]
A549-pERK (10 nM, 2 h) [1]: 64 | A549-CRAF BP 100 nM, 2 h [2]: 59.1

CNS(=O)(=O)Nc1cccc(Cc2c(CN3CCNCC3)c3cc(Cl)c(OC(=O)N(C)C)cc3oc2=O)c1F [Compound 21]
A549-pERK (10 nM, 2 h) [1]: 20.4 | A549-CRAF BP 100 nM, 2 h [2]: 47.9 (mean, n = 2)

CNS(=O)(=O)Nc1cccc(Cc2c(CNCC#N)c3ccc(OC(=O)N(C)C)cc3oc2=O)c1F [Compound 33]
A549-pERK (10 nM, 2 h) [1]: 55.4 | A549-CRAF BP 100 nM, 2 h [2]: 51.4

CCN(CC)Cc1c(Cc2cccc(NS(=O)(=O)NC)c2F)c(=O)oc2cc(OC(=O)N(C)C)ccc12 [Compound 73]
A549-pERK (10 nM, 2 h) [1]: 77.7 | A549-CRAF BP 100 nM, 2 h [2]: 33.9

CNS(=O)(=O)Nc1cccc(Cc2c(CN3CC(OC)C3)c3ccc(OC(=O)N(C)C)cc3oc2=O)c1F [Compound 74]
A549-pERK (10 nM, 2 h) [1]: 75.3 | A549-CRAF BP 100 nM, 2 h [2]: 59.2

CNS(=O)(=O)Nc1cccc(Cc2c(CNCC(F)(F)F)c3ccc(OC(=O)N(C)C)cc3oc2=O)c1F [Compound 75]
A549-CRAF BP 100 nM, 2 h [2]: 66.5

CNS(=O)(=O)Nc1cccc(Cc2c(CN(C)CC(C)C)c3ccc(OC(=O)N(C)C)cc3oc2=O)c1F [Compound 78]
A549-pERK (10 nM, 2 h) [1]: 78.6 | A549-CRAF BP 100 nM, 2 h [2]: 64.2

CNS(=O)(=O)Nc1cccc(Cc2c(CN(C)c3ccccc3)c3ccc(OC(=O)N(C)C)cc3oc2=O)c1F [Compound 79]
A549-pERK (10 nM, 2 h) [1]: 49.4 | A549-CRAF BP 100 nM, 2 h [2]: 45.2 and 64.9

CNS(=O)(=O)Nc1cccc(Cc2c(CN(C)Cc3ccccc3)c3ccc(OC(=O)N(C)C)cc3oc2=O)c1F [Compound 80]
A549-pERK (10 nM, 2 h) [1]: 56.4 | A549-CRAF BP 100 nM, 2 h [2]: 56.1

CCCN(C)Cc1c(Cc2cccc(NS(=O)(=O)NC)c2F)c(=O)oc2cc(OC(=O)N(C)C)ccc12 [Compound 81]
A549-pERK (10 nM, 2 h) [1]: 57.6 | A549-CRAF BP 100 nM, 2 h [2]: 78.3

CNS(=O)(=O)Nc1cccc(Cc2c(CN(C)C3CC3)c3ccc(OC(=O)N(C)C)cc3oc2=O)c1F [Compound 82]
A549-pERK (10 nM, 2 h) [1]: 64.9 | A549-CRAF BP 100 nM, 2 h [2]: 72.3

CNS(=O)(=O)Nc1cccc(Cc2c(CN(C)CC3CC3)c3ccc(OC(=O)N(C)C)cc3oc2=O)c1F [Compound 84]
A549-pERK (10 nM, 2 h) [1]: 83.2 | A549-CRAF BP 100 nM, 2 h [2]: 87.3

CNS(=O)(=O)Nc1cccc(Cc2c(CN(C)C3CCC3)c3ccc(OC(=O)N(C)C)cc3oc2=O)c1F [Compound 86]
A549-pERK (10 nM, 2 h) [1]: 96.4 | A549-CRAF BP 100 nM, 2 h [2]: 53.2

CNS(=O)(=O)Nc1cccc(Cc2c(CN(C)CC#N)c3ccc(OC(=O)N(C)C)cc3oc2=O)c1F [Compound 87]
A549-pERK (10 nM, 2 h) [1]: 63.8 | A549-CRAF BP 100 nM, 2 h [2]: 95.8

CNS(=O)(=O)Nc1cccc(Cc2c(CN(C)CC3CCC3)c3ccc(OC(=O)N(C)C)cc3oc2=O)c1F [Compound 88]
A549-pERK (10 nM, 2 h) [1]: 142 | A549-CRAF BP 100 nM, 2 h [2]: 53.6

CNS(=O)(=O)Nc1cccc(Cc2c(CNc3ccsc3)c3ccc(OC(=O)N(C)C)cc3oc2=O)c1F [Compound 90]
A549-pERK (10 nM, 2 h) [1]: 72.4 | A549-CRAF BP 100 nM, 2 h [2]: 71

CNS(=O)(=O)Nc1cccc(Cc2c(CN3CCOCC3=O)c3ccc(OC(=O)N(C)C)cc3oc2=O)c1F [Compound 181]
A549-pERK (10 nM, 2 h) [1]: 100 | A549-pERK 10 uM, 2 h [1]: 22.23

CNS(=O)(=O)Nc1cccc(Cc2c(CCNCC3CC3)c3ccc(OC(=O)N(C)C)cc3oc2=O)c1F [Compound 186]
A549-pERK (10 nM, 2 h) [1]: 80.1 | A549-pERK 10 uM, 2 h [1]: 0.74

CNS(=O)(=O)Nc1cccc(Cc2c(CNCC(=O)N3CCNCC3)c3ccc(OC(=O)N(C)C)cc3oc2=O)c1F [Compound 191]
A549-pERK (10 nM, 2 h) [1]: 131 | A549-pERK 10 uM, 2 h [1]: 8.6

CNS(=O)(=O)Nc1cccc(Cc2c(CNc3ccc(OC)nc3)c3ccc(OC(=O)N(C)C)cc3oc2=O)c1F [Compound 193]
A549-pERK (10 nM, 2 h) [1]: 90.7

CNS(=O)(=O)Nc1cccc(Cc2c(CC(=O)N3CCN(C)CC3)c3ccc(OC(=O)N(C)C)cc3oc2=O)c1F [Compound 195]
A549-pERK (10 nM, 2 h) [1]: 113

CNS(=O)(=O)Nc1cccc(Cc2c(CC(=O)N(C)C)c3ccc(OC(=O)N(C)C)cc3oc2=O)c1F [Compound 196]
A549-pERK (10 nM, 2 h) [1]: 106

CNS(=O)(=O)Nc1cccc(Cc2c(CC(=O)N(C)CC#N)c3ccc(OC(=O)N(C)C)cc3oc2=O)c1F [Compound 198]
A549-pERK (10 nM, 2 h) [1]: 109

CNS(=O)(=O)Nc1cccc(Cc2c(CC(=O)Nc3ccon3)c3ccc(OC(=O)N(C)C)cc3oc2=O)c1F [Compound 201]
A549-pERK (10 nM, 2 h) [1]: 119

CNS(=O)(=O)Nc1cccc(Cc2c(CC(=O)Nc3ccn[nH]3)c3ccc(OC(=O)N(C)C)cc3oc2=O)c1F [Compound 202]
A549-pERK (10 nM, 2 h) [1]: 119

CCC(=O)NCc1c(Cc2cccc(NS(=O)(=O)NC)c2F)c(=O)oc2cc(OC(=O)N(C)C)ccc12 [Compound 207]
A549-pERK (10 nM, 2 h) [1]: 97.4 | A549-pERK 10 uM, 2 h [1]: 11.35

CNS(=O)(=O)Nc1cccc(Cc2c(CNC(=O)C(C)C)c3ccc(OC(=O)N(C)C)cc3oc2=O)c1F [Compound 208]
A549-pERK (10 nM, 2 h) [1]: 105 | A549-pERK 10 uM, 2 h [1]: 23.64

CNS(=O)(=O)Nc1cccc(Cc2c(CNC(=O)c3c[nH]nn3)c3ccc(OC(=O)N(C)C)cc3oc2=O)c1F [Compound 211]
A549-pERK (10 nM, 2 h) [1]: 121 | A549-pERK 10 uM, 2 h [1]: 70.75

CNS(=O)(=O)Nc1cccc(Cc2c(CNC(=O)C(C)(C)O)c3ccc(OC(=O)N(C)C)cc3oc2=O)c1F [Compound 212]
A549-pERK (10 nM, 2 h) [1]: 100 | A549-pERK 10 uM, 2 h [1]: 13.03

CNS(=O)(=O)Nc1cccc(Cc2c(CNC(=O)c3nn[nH]n3)c3ccc(OC(=O)N(C)C)cc3oc2=O)c1F [Compound 213]
A549-pERK (10 nM, 2 h) [1]: 100 | A549-pERK 10 uM, 2 h [1]: 70.14

CNS(=O)(=O)Nc1cccc(Cc2c(CC(=O)N3CC(OC)C3)c3ccc(OC(=O)N(C)C)cc3oc2=O)c1F [Compound 216]
A549-pERK (10 nM, 2 h) [1]: 89.5 | A549-pERK 10 uM, 2 h [1]: 4.51

CNS(=O)(=O)Nc1cccc(Cc2c(CNCC(=O)N(C)CC#N)c3ccc(OC(=O)N(C)C)cc3oc2=O)c1F [Compound 217]
A549-pERK (10 nM, 2 h) [1]: 96.7 | A549-pERK 10 uM, 2 h [1]: 11.2

C#CCNC(=O)CNCc1c(Cc2cccc(NS(=O)(=O)NC)c2F)c(=O)oc2cc(OC(=O)N(C)C)ccc12 [Compound 218]
A549-pERK (10 nM, 2 h) [1]: 113 | A549-pERK 10 uM, 2 h [1]: 9.46

CNS(=O)(=O)Nc1cccc(Cc2c(CNCC(=O)N(C)c3ccccc3)c3ccc(OC(=O)N(C)C)cc3oc2=O)c1F [Compound 220]
A549-pERK (10 nM, 2 h) [1]: 109 | A549-pERK 10 uM, 2 h [1]: 4.28

CNS(=O)(=O)Nc1cccc(Cc2c(CNCC(=O)Nc3ccccc3)c3ccc(OC(=O)N(C)C)cc3oc2=O)c1F [Compound 223]
A549-pERK (10 nM, 2 h) [1]: 119 | A549-pERK 10 uM, 2 h [1]: 3.04

CCN(C)Cc1c(Cc2cccc(NS(=O)(=O)NC)c2F)c(=O)oc2cc(OC(=O)N(C)C)c(F)cc12 [Compound 261, 4-((ethyl(methyl)amino)methyl)-6-fluoro-3-(2-fluoro-3-((N-methylsulfamoyl)amino)benzyl)-2-oxo-2H-chromen-7-yl dimethylcarbamate]
pERK:tERK (10 nM 2 h A549) ([1]; Phospho-ERK Screen in A549 (KRAS G12S), head 10 nM 2 h, title 10 μM for 2 hours): 68
